One may read the IC50 as the midpoint of a concentration-inhibition curve. A high value points to lower potency.

From patent publication US8604053B2, “TRPV1 antagonists” (AbbVie Inc., priority 2008, dated 2013) come the findings set out here.

A short description of data set [1]: Rat telemetry protocol, core body temperature. It is filed as in vivo. Particulars: core body temperature of rats one hour post dosing, 100 μmol/kg p.o., relative to vehicle. The procedure: Male, Sprague Dawley rats, 225-250 grams were anesthetized with Sevoflurane (Abbott Laboratories). Rats were placed on a heating pad and covered with a sterile surgical drape. A ventral midline abdominal incision was made and sterile cotton tip applicators were used to gently move internal tissue and expose the abdominal aorta for implantation of the telemetry catheter (Data Sciences International; TL11M2-050-PXT). Blood flow was temporarily stopped to the lower extremities (5-7 min) with Diffenbach clamps to allow the insertion of the telemetry catheter into the abdominal aorta. Once inserted, a sterile cellulose patch was placed over the catheter/aorta and secured using a small amount of tissue adhesive (Vetbond, 3M). Once catheter placement was complete, the clamps were removed and blood flow was restored to the lower extremities. Thetransmitter was placed in the intraperitoneal cavity. The transmitter suture rib was sewn into the abdominal sutures to secure it in place. The skin was closed using sterile wound clips and the animal removed from Sevoflurane. Buprenex ([…] s.c.; Phoenix) was administered for post-operative analgesia. Animals were maintained on a heating pad until ambulatory, and then individually housed with food and water ad lib. Surgical staples were removed after 7-10 days post-implantation. Rats were allowed a 2-week post-surgical recovery period before treatment with test compound. Oral dosing (p.o.) was at time zero, with rats receiving a single dose of vehicle (10% EtOH, 20% Tween-80, 70% PEG-400) or a 100 μmol/kg dose of compound dissolved in vehicle. Temperature measurements were recorded every 15 minutes for the duration of the study (24 hours).
Representative compounds described herein have the novel property of having limited transient temperature effect on core body temperature of a mammal (e.g. rats). For example, compounds tested alter core body temperature of rats by less than about +0.5° C. at about 1 hour after administration of a single dose (100 μmol/kg) of the test compounds orally, for example, in the range from about −2.5° C. to less than about +0.5° C., from about −0.5° C. to less than about +0.5° C.; or from about −0.3° C. to about +0.3° C.
The term “core body temperature” as used herein, means the temperature measured in the intraperitoneal cavity.

The target in data set [2] is T1, human TRPV1 receptor (hTRPV1) (Homo sapiens, UniProt Q8NER1).
T1 construct: expressed in transfected cells
Briefly: Capsaicin activation assay (Ca2+ influx, FLIPR). It is filed as cell-based. Particulars: hTRPV1 in 1321N1 cells, 0.05 μM capsaicin. The protocol: Dulbecco's modified Eagle medium (D-MEM) (with 4.5 mg/mL glucose) and fetal bovine serum were obtained from Hyclone Laboratories, Inc. (Logan, Utah). Dulbecco's phosphate-buffered saline (D-PBS) (with 1 mg/mL glucose and 3.6 mg/l Na pyruvate, without phenol red), L-glutamine, hygromycin B, and Lipofectamine® were obtained from Life Technologies (Grand Island, N.Y.). G418 sulfate was obtained from Calbiochem-Novabiochem Corp. (San Diego, Calif.). Capsaicin (8-methyl-N-vanillyl-6-nonenamide) was obtained from Sigma-Aldrich, Co. (St. Louis, Mo.). Fluo-4 AM (N-[4-[6-[(acetyloxy)methoxy]-2,7-difluoro-3-oxo-3H-xanthen-9-yl]-2-[2-[2-[bis[2-[(acetyloxy)methoxy]-2-oxyethyl]amino]-5-methyl-phenoxy[ethoxy]phenyl]-N-[2-[(acetyloxy)methoxy]-2-oxyethyl]-glycine, (acetyloxy)methyl ester) was purchased from Molecular Probes (Eugene, Oreg.).
The cDNAs for the human TRPV1 receptor (hTRPV1) were isolated by reverse transcriptase-polymerase chain reaction (RT-PCR) from human small intestine poly A+ RNA supplied by Clontech (Palo Alto, Calif.) using primers designed surrounding the initiation and termination codons identical to the published sequences (Hayes et al. Pain 2000, 88, 205-215). The resulting cDNA PCR products were subcloned into pClneo mammalian expression vector (Promega) and fully sequenced using fluorescent dye-terminator reagents (Prism, Perkin-Elmer Applied Biosystems Division) and a Perkin-Elmer Applied Biosystems Model 373 DNA sequencer or Model 310 genetic analyzer. Expression plasmids encoding the hTRPV1 cDNA were transfected individually into 1321N1 human astrocytoma cells using Lipofectamine®. Forty-eight hours after transfection, the neomycin-resistant cells were selected with growth medium containing 800 μg/mL Geneticin (Gibco BRL). Surviving individual colonies were isolated and screened for TRPV1 receptor activity. Cells expressing recombinant homomeric TRPV1 receptors were maintained at 37° C. in D-MEM containing 4 mM L-glutamine, 300 μg/mL G418 (Cal-biochem) and 10% fetal bovine serum under a humidified 5% CO2 atmosphere.
The functional activity of compounds at the TRPV1 receptor was determined with a Ca^2+ influx assay and measurement of intracellular Ca^2+ levels ([Ca^2+]i). All compounds were tested over an 11-point half-log concentration range. Compound solutions were prepared in D-PBS (4× final concentration), and diluted serially across 96-well v-bottom tissue culture plates using a Biomek 2000 robotic automation workstation (Beckman-Coulter, Inc., Fullerton, Calif.). A 0.2 μM solution of the TRPV1 agonist capsaicin was also prepared in D-PBS. The fluorescent Ca^2+ chelating dye Fluo-4 AM was used as an indicator of the relative levels of [Ca^2+]i in a 96-well format using a Fluorescence Imaging Plate Reader (FLIPR)(Molecular Devices, Sunnyvale, Calif.). Cells were grown to confluency in 96-well black-walled tissue culture plates. Then, prior to the assay, the cells were loaded with 100 μL per well of Fluo-4 AM (2 μM, in D-PBS) for 1-2 hours at 23° C. Washing of the cells was performed to remove extracellular Fluo-4 AM (2×1 mL D-PBS per well), and afterward, the cells were placed in the reading chamber of the FLIPR instrument. 50 μL of the compound solutions were added to the cells at the 10 second time mark of the experimental run. Then, after a 3-minute time delay, 50 μL of the capsaicin solution was added at the, 190 second time mark (0.05 μM final concentration)(final volume=200 μL) to challenge the TRPV1 receptor. Time length of the experimental run was 240 seconds. Fluorescence readings were made at 1 to 5 second intervals over the course of the experimental run. The peak increase in relative fluorescence units (minus baseline) was calculated from the 190 second time mark to the end of the experimental run, and expressed as a percentage of the 0.05 μM capsaicin (control) response. […]

The target of a further data set is T2, human TRPV1 (Homo sapiens, UniProt Q8NER1).
T2 construct: expressed in transfected cells; host or cells: HEK293-F cells, transient transfection
Put plainly: Acid activation assay, ratiometric calcium imaging. It counts as cell-based. To be noted: HEK293-F cells expressing human TRPV1, Example 56 at 3 μM; for block of TRPV1-mediated increase in intracellular calcium concentration in response to pH 5.5: acid pH 5.5; for block of TRPV1-mediated increase in intracellular calcium concentration in response to capsaicin: capsaicin 1 μM. The procedure: The differential effects of TRPV1 antagonists on capsaicin- or acid-induced responses were verified by ratiometric calcium imaging. Transiently transfected HEK293-F cells expressing human TRPV1 were incubated with 5 μM Fura-2AM for 30 minutes at 37° C. Intracellular calcium concentration was measured on an imaging system consisting of the X-Cite™ 120 Fluorescence Illumination System (EXFO) and a Digital Camera (C4742-95, Hamamatsu Photonics) connected to an Olympus 1×71 microscope. Through the control of Slide Book 4.2 software, fluorescence was measured during excitation at 340 and 380 nm; the ratio of the fluorescence at both excitation wavelengths (F340/F380) was monitored. D-PBS, pH 7.4 (Invitrogen, catalog no. 14287) was used as the extracellular solution. Acidic buffer was prepared by titrating D-PBS, pH 7.4 with 7 N HCl to pH 5.5. Agonists and antagonists were prepared in the pH 7.4 or 5.5 solutions. Rapid solution switch was achieved by using a ValveLink system.
Over the time 1250-second course, the cells were challenged sequentially with solutions containing Example 56 (3 μM), Example 56 (3 μM) plus capsaicin (1 μM), Example 56 (3 μM) plus acid (pH 5.5), or acid (pH 5.5) alone. The black bars above the traces designate addition and duration of solution applications. Spaces between horizontal bars represent periods in which cells were perfused with D-PBS, pH 7.4 alone. […]

T1 sequence (Q8NER1 whole entry): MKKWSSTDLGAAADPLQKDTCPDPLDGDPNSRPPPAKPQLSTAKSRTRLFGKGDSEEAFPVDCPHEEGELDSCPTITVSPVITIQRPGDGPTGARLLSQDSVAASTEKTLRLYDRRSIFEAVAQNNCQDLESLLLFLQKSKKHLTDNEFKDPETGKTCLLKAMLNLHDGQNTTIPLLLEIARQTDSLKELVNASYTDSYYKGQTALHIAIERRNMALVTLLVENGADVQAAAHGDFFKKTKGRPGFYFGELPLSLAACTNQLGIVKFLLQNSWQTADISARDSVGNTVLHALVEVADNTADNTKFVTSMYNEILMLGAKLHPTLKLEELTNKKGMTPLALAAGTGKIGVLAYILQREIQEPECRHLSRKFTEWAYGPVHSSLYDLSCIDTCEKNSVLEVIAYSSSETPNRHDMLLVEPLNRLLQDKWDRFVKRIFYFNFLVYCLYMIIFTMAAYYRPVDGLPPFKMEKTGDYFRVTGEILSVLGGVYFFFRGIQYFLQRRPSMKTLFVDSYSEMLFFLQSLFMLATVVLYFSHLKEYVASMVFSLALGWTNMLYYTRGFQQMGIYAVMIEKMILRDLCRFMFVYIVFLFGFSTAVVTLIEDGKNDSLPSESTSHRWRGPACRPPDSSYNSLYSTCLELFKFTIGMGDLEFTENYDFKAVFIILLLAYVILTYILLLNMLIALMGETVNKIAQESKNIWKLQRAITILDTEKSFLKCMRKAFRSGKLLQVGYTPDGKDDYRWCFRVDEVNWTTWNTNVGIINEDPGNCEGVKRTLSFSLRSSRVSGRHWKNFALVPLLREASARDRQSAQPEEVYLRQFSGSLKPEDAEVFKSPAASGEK
T2 sequence (Q8NER1 whole entry): as above

Take `CCC1(CC)C[C@@H](NC(=O)Nc2cccc3c2cnn3C)c2cc(F)ccc2O1` [Example 26, N-[(4R)-2,2-diethyl-6-fluoro-3,4-dihydro-2H-chromen-4-yl]-N′-(1-methyl-1H-indazol-4-yl)urea]: the “Δ Temp (° C.)” value in data set [1] was determined as 0.1 °C. This molecule also yielded a 50% inhibitory concentration (IC50) in data set [2] of 50 nM. At human TRPV1, the “block of TRPV1-mediated increase in intracellular calcium concentration in response to pH 5.5” value is “did not completely block” and the “block of TRPV1-mediated increase in intracellular calcium concentration in response to capsaicin” value is recorded as “completely blocked”.

With `CCC1(CC)C[C@@H](NC(=O)Nc2cccc3c2cnn3C)c2cccc(OC(F)(F)F)c2O1` [Example 55, N-[(4R)-2,2-diethyl-8-(trifluoromethoxy)-3,4-dihydro-2H-chromen-4-yl]-N′-(1-methyl-1H-indazol-4-yl)urea], in data set [1], the “Δ Temp (° C.)” value was 0.3 °C. It took 16 nM to reach half-maximal inhibition in data set [2] (IC50). In addition, at human TRPV1, the “block of TRPV1-mediated increase in intracellular calcium concentration in response to pH 5.5” value is “did not completely block” and the “block of TRPV1-mediated increase in intracellular calcium concentration in response to capsaicin” value is “completely blocked”.

On to `CC(=O)Nc1nc2c(Oc3cc(N4CCN(C(C)c5ccc(F)cc5)CC4)ncn3)cccc2s1` (centres unmarked) [AMG 628, reference compound], for which, at human TRPV1, the “block of TRPV1-mediated increase in intracellular calcium concentration in response to pH 5.5” value was “completely blocked” and the “block of TRPV1-mediated increase in intracellular calcium concentration in response to capsaicin” value was “completely blocked”.

Consider `CCCC1(CCC)C[C@@H](NC(=O)Nc2cccc3c2cnn3C)c2cc(F)ccc2O1` [Example 61, N-[(4R)-6-fluoro-2,2-dipropyl-3,4-dihydro-2H-chromen-4-yl]-N′-(1-methyl-1H-indazol-4-yl)urea], for which, in data set [1], the “Δ Temp (° C.)” value was 0.3 °C. The same molecule yielded a half-maximal inhibitory concentration (IC50) in data set [2] of 31 nM. At human TRPV1, the “block of TRPV1-mediated increase in intracellular calcium concentration in response to pH 5.5” value was “did not completely block” and the “block of TRPV1-mediated increase in intracellular calcium concentration in response to capsaicin” value is listed as “completely blocked”.
